Reference: paper PMC4129951 (Nature chemical biology, 2010)

Key:
[1] = molecular target: T1, ProA(wt); γ-glutamyl phosphate reductase (Escherichia coli, UniProt P07004); assay: NADPH oxidation in coupled assay with ProB; format: biochemical; settings: γ-glutamyl phosphate formed in situ by ProB from L-Glu
T1 sequence (P07004 1-417): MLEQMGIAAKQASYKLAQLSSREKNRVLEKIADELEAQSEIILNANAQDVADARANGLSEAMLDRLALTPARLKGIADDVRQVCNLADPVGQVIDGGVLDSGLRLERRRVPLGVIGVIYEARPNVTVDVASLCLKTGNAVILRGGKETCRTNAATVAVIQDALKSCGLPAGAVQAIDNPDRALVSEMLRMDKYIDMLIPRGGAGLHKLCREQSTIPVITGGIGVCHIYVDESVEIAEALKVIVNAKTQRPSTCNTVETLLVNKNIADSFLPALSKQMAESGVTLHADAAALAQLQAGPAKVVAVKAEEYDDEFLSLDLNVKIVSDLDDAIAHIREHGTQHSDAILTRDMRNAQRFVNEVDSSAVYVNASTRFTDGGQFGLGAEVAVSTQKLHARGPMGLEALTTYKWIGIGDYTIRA

[2] = molecular target: T2, LysC; aspartokinase III (Escherichia coli, UniProt P08660); assay: in vitro reaction, product confirmed by LC-MS; format: biochemical; settings: product trapped with L-Cys as β-aspartyl cysteine
T2 sequence (P08660 2-449): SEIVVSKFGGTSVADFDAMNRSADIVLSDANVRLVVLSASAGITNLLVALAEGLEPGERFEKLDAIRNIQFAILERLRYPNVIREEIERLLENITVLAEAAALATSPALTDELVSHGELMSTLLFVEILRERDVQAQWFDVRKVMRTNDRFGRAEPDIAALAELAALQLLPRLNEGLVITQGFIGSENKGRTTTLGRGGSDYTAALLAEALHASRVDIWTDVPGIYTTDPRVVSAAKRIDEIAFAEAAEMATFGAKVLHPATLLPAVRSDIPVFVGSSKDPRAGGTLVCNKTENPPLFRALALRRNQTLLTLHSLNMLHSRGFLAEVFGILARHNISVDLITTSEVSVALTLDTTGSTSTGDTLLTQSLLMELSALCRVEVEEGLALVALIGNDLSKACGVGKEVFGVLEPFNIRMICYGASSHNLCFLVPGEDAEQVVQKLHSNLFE

| SMILES | NADPH oxidation in coupled assay with ProB [1] | in vitro reaction, product confirmed by LC-MS [2] |
| --- | --- | --- |
| NC(=O)C1=CN([C@@H]2O[C@H](COP(=O)(O)OP(=O)(O)OC[C@H]3O[C@@H](n4cnc5c(N)ncnc54)[C@H](OP(=O)(O)O)[C@@H]3O)[C@@H](O)[C@H]2O)C=CC1 [NADPH] | A coupled in vitro assay, which measures NADPH oxidation by ProA(wt) |  |
| N[C@@H](CC(=O)O)C(=O)O [L-Asp] |  | LysC from E. coli was used to convert L-Asp to β-aspartyl phosphate |
